Patent US11278514B2, “Composition compromising dunnione as effective ingredient for prevention or alleviation of hair loss” (NADIANBIO LTD., priority 2018, dated 2022)
“Also recorded” adds a separate entry of the source. Like-named read-outs stand apart in the source and are kept apart here.

What was measured:
[1] = tested on: C57BL/6 mice having alopecia caused by cyclophosphamide
Procedure: The day, on which the mice were hair-removed in Example 1, was set as day 0, and the animals were divided into the following groups: normal group (Control, 4 animals) in which only PBS is intraperitoneally injected on day 9; cyclophosphamide group (CYP, 6 animals) in which cyclophosphamide (150 mg/kg) is intraperitoneally injected on day 9; combination-treated group (CYP+Dunnione, 6 animals) in which dunnione is orally administered on a daily basis starting from 3 days prior to treatment with cyclophosphamide; and dunnione alone-treated group (Dunnione, 4 animals) in which only dunnione (20 mg/kg) is administered (FIG. 1).
The day, on which the mice were hair-removed in Example 1, was set as day 0, and the mice in each of the experimental groups described in Example 2 were sacrificed on day 18. Subsequently, the mouse dorsal skin was dissected parallel or perpendicular to the vertebral line, and removed. The removed skin was fixed with a Bouin's solution for 12 hours, subjected to dehydration, and embedded in paraffin. Then, the resulting product was prepared into 5-μm sections. The prepared sections were subjected to hematoxylin and eosin (H&E) staining, and histological changes in the skin in each experimental group were observed.

NQO1 knockout mice [2] = assay: Visual observation of skin in NQO1 knockout mice treated with 6×TAC; type: in vivo
Source text: In order to identify whether a hair loss inhibitory effect of dunnione in an animal model having combined chemotherapy-induced alopecia is dependent on the enzyme NQO1, the same experiments as described in Examples 1 and 2 were repeatedly performed using NQO1 knockout mice in place of the C57BL/6 mice.

NF-κB p65 = assay: Acetylation of NF-κB p65 in skin tissue (western blot), cyclophosphamide alopecia model; type: in vivo, mice; conditions: cyclophosphamide plus dunnione; day 18
Procedure: (§1) In the cyclophosphamide-induced alopecia mouse model of Example 2, expression level of Sirt1 protein and acetylation reaction of the target proteins thereof, NF-κB p65 and p53, were identified on the skin tissue obtained on day 18 after hair removal.
(§2) Specifically, 10 mg of the skin tissue obtained from the animal model prepared by the method in Example 2 was homogenized by addition of a lysis solution (RIPA lysis buffer). Then, centrifugation was performed at 14,000 rpm for 10 minutes. The protein concentration in the supernatant was quantified with a bovine serum albumin (BSA) standard solution. The skin tissue protein was used in an amount of 40 μg per test solution. First, the homogenized skin tissue was mixed with a sample solution (Bio-Rad, 161-0747) and inactivated at a temperature of 95° C. for 5 minutes. Thereafter, the protein was separated by a sodium dodecyl sulfate-polyacrylamide gel electrophoresis (SDS-PAGE) method, and then transferred to a nitrocellulose membrane. Treatment with anti-Sirt1 antibody (Abcam), anti-acetyl NF-κB p65 antibody and anti-acetyl p53 antibody (Cell Signaling Technologies), and anti-β-actin antibody (Santa Cruz Biotechnology) as primary antibodies were performed, and reaction was allowed to proceed. […]

p53 = assay: Acetylation of p53 in skin tissue (western blot), cyclophosphamide alopecia model; type: in vivo, mice; conditions: cyclophosphamide plus dunnione; day 18
Procedure: as §1, §2

intracellular NAD^+ = conditions: reported to date (Pandit et al. 2015; Shen et al. 2017); cited from earlier work
NQO1 knockout mice [3] = tested on: NQO1 knockout mice
Procedure: (§3) The day, on which the NQO1 knockout mice were hair-removed according to Example 1, was set as day 0, and the animals were divided into the following experimental groups and used for experiments: normal group (Control, 4 animals) in which only PBS is intraperitoneally injected on day 9; cyclophosphamide group (CYP, 6 animals) in which cyclophosphamide (150 mg/kg) is intraperitoneally injected on day 9; combination-treated group (CYP+Dunnione, 6 animals) in which dunnione is orally administered on a daily basis starting from 3 days prior to treatment with cyclophosphamide; and dunnione alone-treated group (Dunnione, 4 animals) in which only dunnione (20 mg/kg) is administered (FIG. 1).

NQO1 knockout mice [4] = conditions: day 18
Procedure: as §3
The day, on which the NQO1 knockout mice were hair-removed according to Example 1, was set as day 0, and the mice in each of the experimental groups described in Example 3 were sacrificed on day 18. Subsequently, the mouse dorsal skin was dissected parallel or perpendicular to the vertebral line, and removed. The removed skin was fixed with a Bouin's solution for 12 hours, subjected to dehydration, and embedded in paraffin. Then, the resulting product was prepared into 5-μm sections. The prepared sections were subjected to hematoxylin and eosin (H&E) staining, and histological changes in the skin in each experimental group were observed.

[5] = tested on: C57BL/6 mice having alopecia caused by docetaxel, adriamycin, and cyclophosphamide; assay: Histological changes in skin (H&E) in animal model having alopecia caused by 6×TAC; type: in vivo; conditions: day 18
Procedure: The day, on which the mice were hair-removed in Example 1, was set as day 0, and the mice in each of the experimental groups described in Example 4 were sacrificed on day 18. Subsequently, the mouse dorsal skin was dissected parallel or perpendicular to the vertebral line, and removed. The removed skin was fixed with a Bouin's solution for 12 hours, subjected to dehydration, and embedded in paraffin. Then, the resulting product was prepared into 5-μm sections. The prepared sections were subjected to hematoxylin and eosin (H&E) staining, and histological changes in the skin in each experimental group were observed.

Sirt1 = Sirt1 activity in skin tissue (fluorescent Sirt1 detection kit), cyclophosphamide alopecia model; type: in vivo, mice; conditions: cyclophosphamide plus dunnione combination-treated group; day 18
Procedure: In addition, the skin tissue obtained from the animal model prepared by the method in Example 2 was homogenized. The homogenized skin tissue was tested with the fluorescent Sirt1 detection kit (BML-AK555-0001) of Enzo Life Sciences International, Inc. according to the instruction manual, and then Sirt1 activity was analyzed. 40 μg of the homogenized skin tissue was mixed with a reaction solution (Fluor de Lys-Sirt1, NAD+, buffer solution (25 mM Tris-HCl (pH8.0), 137 mM NaCl, 2.7 mM […], 1 mM MgCl2, and 1 mg/mL BSA)), and reaction was allowed to proceed at a temperature of 37° C. for 1 hour. Then, additional reaction was allowed to proceed for 5 minutes under a condition in which a developer is added. In order to check the final Sirt1 activity, readings were measured for the reaction solution using the CytoFluor series 4000 fluorometer (PerSeptive Biosystems, Inc., USA) with the excitation wavelength set to 360 nm and the emission to 460 nm.

Sirt1 protein = assay: Expression level of Sirt1 protein in skin tissue (western blot), cyclophosphamide alopecia model; type: in vivo, mice; conditions: cyclophosphamide plus dunnione; day 18
Procedure: as §1, §2

[6] = tested on: C57BL/6 mice having alopecia caused by cyclophosphamide; assay: Visual observation of skin in animal model having alopecia caused by cyclophosphamide; type: in vivo
Source text: In 9-week-old C57BL/6 mice, the hair on the dorsal skin area was first removed with an animal hair clipper, and then a depilatory ([…] cream, manufactured by Ildong Pharmaceutical Co., Ltd.) was applied to the dorsal skin to completely remove the hair.

[7] = target: NAD(P)H: quinone oxidoreductase 1 (NQO1) (Homo sapiens, UniProt P15559); conditions: reported to date (Pandit et al. 2015; Shen et al. 2017); cited from earlier work
[8] = dunnione alone (20 mg/kg), day 18

Sequence of NAD(P)H: quinone oxidoreductase 1 (NQO1) (P15559 whole entry, species assumed): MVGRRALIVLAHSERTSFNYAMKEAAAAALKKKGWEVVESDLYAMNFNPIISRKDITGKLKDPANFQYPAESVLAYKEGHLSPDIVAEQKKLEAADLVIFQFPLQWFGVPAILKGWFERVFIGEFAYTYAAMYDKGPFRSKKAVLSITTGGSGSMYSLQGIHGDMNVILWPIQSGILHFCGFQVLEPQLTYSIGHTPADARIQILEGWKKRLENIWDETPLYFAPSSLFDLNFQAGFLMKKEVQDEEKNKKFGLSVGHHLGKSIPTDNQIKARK

CC1OC2=C(C(=O)C(=O)c3ccccc32)C1(C)C (stereo not shown) [dunnione, 2,3-dihydro-2,3,3-trimethyl-naphtho[1,2-b]furan-4,5-dione]
development of hair follicles and inner root sheaths (histology) ([1]; CYP+Dun combination-treated group, day 18 after hair removal): suppressed falling-off of hair follicles and inner root sheaths; also recorded: the hair follicles and the inner root sheaths have well developed overall
number of growing hairs (histology) ([1]; CYP+Dun compared with cyclophosphamide alone-treated group, day 18): increased number of hairs
hair growth, visual observation of skin (NQO1 knockout mice [2]; 6×TAC+Dunnione combination-treated group, until day 18): hair hardly grows until day 18 after hair removal; also recorded: progression of hair loss to a level similar to the TAC alone-treated group
start of hair growth, visual observation of skin (NQO1 knockout mice [2]; dunnione alone (20 mg/kg)): hair began to grow starting from day 12 after hair removal
hair growth, visual observation of skin (NQO1 knockout mice [2]; [8]): hair grew overall on day 18 so that the skin is full of hair and looks black
acetylation of NF-κB p65 in skin tissue (NF-κB p65): suppresses
acetylation of p53 in skin tissue (p53): suppresses
intracellular NAD^+ (intracellular NAD^+): increase
hair growth, visual observation of skin (NQO1 knockout mice [3]; CYP+Dun combination-treated group, until day 18): hair hardly grew until day 18 after hair removal; also recorded: progression of hair loss to a level similar to the cyclophosphamide alone-treated group
start of hair growth, visual observation of skin (NQO1 knockout mice [3]; dunnione alone (20 mg/kg)): hair began to grow starting from day 12 after hair removal
hair growth, visual observation of skin (NQO1 knockout mice [3]; [8]): hair grew overall on day 18 so that the skin is full of hair and looks black
development of hair follicles and inner root sheaths (histology) (NQO1 knockout mice [4]; CYP+Dun combination-treated group): the hair follicles have poorly developed or the inner root sheaths have insufficiently developed; also recorded: falling-off of hair follicles and inner root sheaths in the skin tissue progresses
development of hair follicles and inner root sheaths (histology) (NQO1 knockout mice [4]; dunnione alone): the hair follicles and inner root sheaths have well developed overall
development of hair follicles and inner root sheaths (histology) ([5]; 6×TAC+Dunnione combination-treated group): the hair follicles and the inner root sheaths have well developed overall; also recorded: suppressed falling-off of hair follicles and inner root sheaths
number of growing hairs (histology) ([5]; 6×TAC+Dunnione compared with 6×TAC alone-treated group): increased number of hairs
Sirt1 activity in skin tissue (Sirt1): maintained at a level similar to the normal group
expression level of Sirt1 protein in skin tissue (Sirt1 protein): increases; also recorded: normalizes
hair growth, visual observation of skin ([6]; CYP+Dunnione combination-treated group, day 18 after hair removal): hair grew overall so that the skin is full of hair and looks black
hair growth, visual observation of skin ([6]; CYP+Dunnione: cyclophosphamide 150 mg/kg i.p. day 9, dunnione oral daily from 3 days prior, day 14 after hair removal): began to grow more hair than the cyclophosphamide alone-treated group
hair loss ([6]; cyclophosphamide plus dunnione combination-treated group compared with cyclophosphamide alone-treated group): inhibited hair loss
hair growth, visual observation of skin ([6]; dunnione alone (20 mg/kg), day 18 after hair removal): hair grew overall so that the skin is full of hair and looks black
activity of the enzyme NQO1 [7]: increases
